Results published in PubChem BioAssay (NCI).
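Exposure lasted 48 hours, with cells grown in 96-well plates and compounds tested at five concentrations. TGI: total growth inhibition.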

Tests used:
Assay in all cases: inhibition of tumour cell growth, NCI panel, 48 h
SK-OV-3 ovarian = tested on: SK-OV-3 ovarian
RPMI-8226 leukemia = tested on: RPMI-8226 leukemia
MALME-3M melanoma = tested on: MALME-3M melanoma
EKVX NSCLC = tested on: EKVX NSCLC
MDA-MB-231 breast = tested on: MDA-MB-231 breast
MDA-N = tested on: MDA-N
SF-539 CNS = tested on: SF-539 CNS
HCT-15 colon = tested on: HCT-15 colon
U251 CNS = tested on: U251 CNS
BT-549 breast = tested on: BT-549 breast
HCC-2998 colon = tested on: HCC-2998 colon
SW-620 colon = tested on: SW-620 colon
COLO 205 colon = tested on: COLO 205 colon
SNB-19 CNS = tested on: SNB-19 CNS
T-47D breast = tested on: T-47D breast
NCI-H23 lung = tested on: NCI-H23 lung
SK-MEL-28 melanoma = tested on: SK-MEL-28 melanoma
HOP-62 NSCLC = tested on: HOP-62 NSCLC
CAKI-1 renal = tested on: CAKI-1 renal
HT29 colon = tested on: HT29 colon
NCI/ADR-RES ovarian = tested on: NCI/ADR-RES ovarian
A549 NSCLC = tested on: A549 NSCLC
HCT-116 colon = tested on: HCT-116 colon
OVCAR-3 ovarian = tested on: OVCAR-3 ovarian
UACC-257 melanoma = tested on: UACC-257 melanoma
UO-31 renal = tested on: UO-31 renal
SNB-75 CNS = tested on: SNB-75 CNS
UACC-62 melanoma = tested on: UACC-62 melanoma
OVCAR-8 ovarian = tested on: OVCAR-8 ovarian
ACHN renal = tested on: ACHN renal
MDA-MB-435 = tested on: MDA-MB-435
SK-MEL-2 melanoma = tested on: SK-MEL-2 melanoma
OVCAR-4 ovarian = tested on: OVCAR-4 ovarian
SN12C renal = tested on: SN12C renal
SF-268 CNS = tested on: SF-268 CNS
A498 renal = tested on: A498 renal
OVCAR-5 ovarian = tested on: OVCAR-5 ovarian
SF-295 CNS = tested on: SF-295 CNS
786-0 renal = tested on: 786-0 renal
DU-145 prostate = tested on: DU-145 prostate
HS 578T breast = tested on: HS 578T breast
K-562 leukemia = tested on: K-562 leukemia
KM12 colon = tested on: KM12 colon
MOLT-4 leukemia = tested on: MOLT-4 leukemia
MCF7 breast = tested on: MCF7 breast
CCRF-CEM leukemia = tested on: CCRF-CEM leukemia
PC-3 prostate = tested on: PC-3 prostate
NCI-H460 lung = tested on: NCI-H460 lung
NCI-H226 lung = tested on: NCI-H226 lung
M14 melanoma = tested on: M14 melanoma
NCI-H522 lung = tested on: NCI-H522 lung
HOP-92 NSCLC = tested on: HOP-92 NSCLC
SK-MEL-5 melanoma = tested on: SK-MEL-5 melanoma
HL-60(TB) leukemia = tested on: HL-60(TB) leukemia
IGROV1 ovarian = tested on: IGROV1 ovarian
RXF 393 renal = tested on: RXF 393 renal
TK-10 renal = tested on: TK-10 renal

Measured: TGI

O=[N+]([O-])C(=C1NCCN1)/C(Cl)=C(/Cl)N1CCOCC1
not listed: NCI-H522 lung | HOP-92 NSCLC | SK-MEL-5 melanoma | HL-60(TB) leukemia | IGROV1 ovarian | RXF 393 renal | TK-10 renal
> 100 µM: all other assays above

CC(NC(=O)C(C)C(=O)Nc1ccc(C(F)(F)F)cc1)C(N)=O (stereo not given)
not listed: HCC-2998 colon | SK-MEL-28 melanoma | HOP-62 NSCLC | OVCAR-3 ovarian | OVCAR-4 ovarian | A498 renal | MOLT-4 leukemia | TK-10 renal
> 100 µM: all other assays above

COc1cc2c(cc1OC)C1C(O)C(OC)C(Br)C3(Br)CCN(C2)C13 (stereo not given)
not listed: K-562 leukemia
> 100 µM: all other assays above
